According to publication PMC6105163, “Abaloparatide Exerts Bone Anabolic Effects with Less Stimulation of Bone Resorption-Related Factors: A Comparison with Teriparatide” (Calcified Tissue International, 2018):

Assays:
[1] = system: rat osteoblastic cell line UMR-106; experiment: cAMP accumulation assay in UMR-106; type: cell-based; details: for cAMP accumulation, in words: UMR-106, 10 min (Fig. 1b), n = 3 replicate wells; for EC50 / Emax, cAMP accumulation: UMR-106, 10 min, 2 mmol/L 3-isobutyl-1-methylxanthine, mean ± s.e.m., three independent experiments, each triplicate; for EC50: P = 0.0067 ABL vs TPTD; for Emax, cAMP accumulation: P = 0.84 ABL vs TPTD
Description: The human osteoblastic cell line SaOS-2 and the rat osteoblastic cell line UMR-106 were purchased from the European Collection of Cell Cultures (Wiltshire, UK). SaOS-2 and UMR-106 were maintained in growth medium (GM): McCoy’s 5A (for SaOS-2) or Dulbecco’s Modified Eagle’s Medium (for UMR-106) supplemented with 10% FBS and 1% penicillin/streptomycin at 37 °C with 5% CO2. To initiate cell differentiation, cells were grown in differentiation medium (DM): GM containing 50 µg/mL ascorbic acid, 10 mmol/L β-glycerophosphate, and 10 nmol/L dexamethasone. The culture medium was exchanged every 6 days or less.
Cells were cultured in 96-well plates at a density of 4 × 10^4 cells/well in GM overnight. The medium was replaced with serum-free GM (containing 0.1% BSA instead of 10% FBS) for culture under starvation conditions. Twenty-four hours after the start of starvation, ABL, TPTD, or vehicle (water containing 0.1% BSA) were added to the cells with 2 mmol/L of 3-isobutyl-1-methylxanthine for 10 min. Cells were lysed and accumulated cAMP was measured using the cAMP-Screen System (Applied Biosystems, Waltham, MA, USA) according to the manufacturer’s instructions.
All data are expressed as means ± s.e.m. For calculation of EC50 and Emax, 4-parameter logistic curve fitting was performed. Student’s t test was used for two-group comparisons. Dunnett’s or Tukey’s test was used for multiple comparisons. Significance was inferred from P values of < 0.05. All data were analyzed using GraphPad Prism version 6.03 (GraphPad Software, La Jolla, CA, USA).

[2] = system: osteocyte-like SaOS-2; experiment: WNT signaling antagonist gene expression (qRT-PCR); type: cell-based, human; details: 100 nmol/L, n = 3; for DKK1 (gene expression and protein secretion) / sclerostin (gene expression and protein secretion): continuous treatment (Fig. 4e, f), qRT-PCR and ELISA; for DKK1 gene expression / sclerostin gene expression: treatment limited to first 6 h (Fig. 4c), day 30 cells
Description: (§1) SaOS-2 was cultured in 48-well plates at a density of 5 × 10^4 cells/well in DM for 30 days. Cells were treated with ABL and TPTD at a concentration of 100 nmol/L. Six hours after treatment, cells were washed with PBS twice, and cultured with peptide-free or peptide-containing medium for the rest of the experimental period.
(§2) Cells were lysed and total RNA was extracted using an RNeasy Mini Kit (Qiagen, Valencia, CA, USA). RNA was reverse-transcribed into cDNA using the SuperScript III First-Strand Synthesis System for RT-PCR (Invitrogen, Carlsbad, CA, USA). Quantitative RT-PCR was performed on a 7500 Real-Time PCR System (Applied Biosystems) using Power SYBR Green PCR Master Mix (Thermo Fisher Scientific, Waltham, MA, USA). The primers used in this study were as follows: 5′-CGATGGTGGATGGCTCATG-3′ (forward) and 5′-ACCAGATGGGATGTCGGTG-3′ (reverse) for RANKL, 5′-[…]-3′ (forward) and 5′-[…]-3′ (reverse) for M-CSF, 5′-[…]-3′ (forward) and 5′-[…]-3′ (reverse) for OPG, 5′-[…]-3′ (forward) and 5′-[…]-3′ (reverse) for IGF1, 5′-[…]-3′ (forward) and 5′-[…]-3′ (reverse) for osteocalcin, 5′-[…]-3′ (forward) and 5′-[…]-3′ (reverse) for DMP1, 5′-[…]-3′ (forward) and 5′-[…]-3′ (reverse) for SOST, 5′-[…]-3′ (forward) and 5′-[…]-3′ (reverse) for DKK1, 5′-GTGAAGGTCGGAGTCAACG-3′ (forward) and 5′-TGAGGTCAATGAAGGGGTC-3′ (reverse) for GAPDH.

[3] = system: OVX rats; experiment: Bone resorption marker urine DPD/Cr in OVX rats; type: in vivo, Sprague–Dawley rats (female); details: once daily s.c.; for urinary DPD/Cr at 5.0 nmol/kg: day 28; for urinary DPD/Cr, significance: day 28, n = 8 or 9
From the text: (§3) Ten-week-old female Sprague–Dawley rats were purchased from Charles River Laboratories Japan, Inc. (Kanagawa, Japan) and ovariectomized at 12 weeks old. Thirty-five days after surgery, rats received once daily subcutaneous injection of ABL, TPTD, or vehicle (saline containing 0.1% heat-inactivated rat serum) for 28 days. Day 0 indicates the day when administration was started. On day 26, rats were anesthetized with intraperitoneally administered pentobarbital sodium and the lumbar spine (L4 and L5) BMD was measured with a PIXImus2 (GE Healthcare, Chicago, IL). Blood (collected from the tail vein) and urine samples were obtained on day 28. Prior to collection, rats were fasted for 15–17 h. Rats were euthanized after the blood and urine collection, and the lumbar spine was removed for the measurement of bone strength. All experimental procedures were approved by the Animal Care and Use Committee of Teijin Institute for Bio-Medical Research.
(§4) Serum P1NP concentration was measured with a Rat/Mouse PINP EIA kit (Immunodiagnostic Systems, Boldon, UK). Urine DPD concentration was measured with an Osteolinks DPD kit (Quidel, San Diego, CA, USA). Urine creatinine (Cr) concentration was measured with a 7180 Autoanalyzer (Hitachi High-Technologies Corporation, Tokyo, Japan).

[4] = system: OVX rats; experiment: L4 vertebral bone strength in OVX rats; type: in vivo, Sprague–Dawley rats (female); details: once daily s.c. for 28 days, day 28, vs OVX, n = 8 or 9
From the text: as §3
L4 was isolated from the lumbar spine. The height of the vertebral body was measured with a vernier caliper. To obtain vertebral body specimens, the cranial and caudal ends of the vertebral body were cut with a diamond saw to a height of 4 mm. Bone strength was measured with a MZ-500S (MARUTO Testing Machine Company, Tokyo, Japan).

[5] = system: OVX rats; experiment: Bone formation marker serum P1NP in OVX rats; type: in vivo, Sprague–Dawley rats (female); details: once daily s.c., day 28, vs OVX, n = 8 or 9
From the text: as §3, §4

[6] = system: osteocyte-like SaOS-2; experiment: Sclerostin and DKK1 protein secretion (ELISA); type: cell-based, human; details: 100 nmol/L, transient (Fig. 4d); efficacies of ABL and TPTD not significantly different; n = 3
Description: as §1
Human Quantikine M-CSF, Sclerostin, and DKK1 ELISA kits (R&D Systems, Minneapolis, MN, USA) were used to quantify M-CSF, sclerostin, and DKK1, respectively, in the cell supernatants according to the manufacturer’s instructions.

[7] = system: SaOS-2; experiment: Bone formation-related factor gene expression (qRT-PCR); type: cell-based, human; details: for IGF-1 gene expression / osteocalcin gene expression: 100 nmol/L once daily 11 days, 6-h exposure per 24-h cycle (Fig. 3b), n = 3; for IGF-1 and osteocalcin expression, continuous treatment: data not shown
Description: SaOS-2 was cultured in 12-well plates at a density of 2 × 10^5 cells/well in DM. Concomitant with the initiation of cell differentiation, cells were treated with 100 nmol/L of ABL and TPTD once daily for 11 days. The peptide exposure was limited to the first 6 h of the 24-h incubation cycle, and the medium was replaced with peptide-free medium for the rest of the cycle after washing with PBS twice.
as §2

Substance | cAMP accumulation, in words [1] | EC50 [1] | Emax, cAMP accumulation [1] | DKK1 (gene expression and protein secretion) [2] | sclerostin (gene expression and protein secretion) [2] | DKK1 gene expression [2] | sclerostin gene expression [2] | urinary DPD/Cr at 5.0 nmol/kg [3] | urinary DPD/Cr, significance [3] | lumbar spine (L4) bone strength [4] | serum P1NP [5] | DKK1 protein secretion [6] | sclerostin protein secretion [6] | IGF-1 gene expression [7] | osteocalcin gene expression [7] | IGF-1 and osteocalcin expression, continuous treatment [7] | IGF-1 and osteocalcin effects, ABL vs TPTD ([7]; 100 nmol/L, repeating 6-h exposure cycle, 11 days (Fig. 3b))
human PTH(1–34) [Teriparatide] | dose-dependently increased cAMP | 1.18 ± 0.06 nM | 271.4 ± 25.0 nmol/L | similarly inhibited | similarly inhibited | similarly suppressed | similarly suppressed | a slight increase | no significant differences | significantly increased | significantly increased | inhibited | inhibited | increased | increased | could hardly detect | 
[Glu^22,25, Leu^23,28,31, Aib^29, Lys^26,30] human PTHrP(1–34)–NH2 [Abaloparatide] | dose-dependently increased cAMP | 0.84 ± 0.03 nM | 278.4 ± 20.8 nmol/L | similarly inhibited | similarly inhibited | similarly suppressed | similarly suppressed | a slight increase | no significant differences | significantly increased | significantly increased | inhibited | inhibited | increased | increased | could hardly detect | not significantly different
